Assays:
[1] = target: T1, HR23B (Homo sapiens, UniProt P54727); assay: SPR analysis, immobilized GST-HR23B (GST control subtracted); type: binding; settings: no kinetic analysis
T1 construct: ADRM1 and HR23B human full length proteins were purchased; purchased Abnova (Taipei, Taiwan)
Description: SPR was utilized as an independent confirmation of the kinetic parameters between SQAP and the putative binding proteins. […] The recombinant proteins were then expressed in Escherichia coli and purified to homogeneity. In addition, full length, His-tagged ADRM1 and GST-tagged HR23B (GST-HR23B) were also used. The proteins were first immobilized on a CM5 sensor chip of the SPR biosensor (Biacore 3000). For GST-HR23B analysis, a GST protein was additionally immobilized and used as a control in order to eliminate possible nonspecific binding of SQAP. SQAP samples at different concentrations were then injected over the proteins immobilized on the sensor chip. As a negative control we used sulfoquynovosylpropanediol (SQP), which lacks the fatty acid moiety of SQAP (Fig. 1). […]
The binding kinetics of SCP-2, MFE-2, ADRM1, HR23B and FAK with SQAP and SQP were analyzed on a Biacore 3000 instrument (GE Healthcare, Little Chalfont, UK). […] The buffer of purified peptides was exchanged to HBS-P (150 mM NaCl, 0.005% Surfactant P20, 10 mM HEPES-NaOH pH 7.4) using a PD 10 column (GE Healthcare, Little Chalfont, UK) and the concentrations were quantified using DC protein assay kit (Bio-Rad Laboratories, Hercules, CA, USA). […] Kinetic parameters were determined by analyzing the data using BIAevaluation 4.1 software (GE Healthcare, Little Chalfont, UK).

[2] = system: paxillin phosphorylation at Y118 in A549; assay: Paxillin phosphorylation in A549, Western blotting; type: cell-based, human; settings: A549, 21 h treatment, 10 µM
Description: Fibronectin is a glycoprotein located in the extracellular matrix that binds to integrins. […] A549 lung cancer cells have been used before for studying cell migration because of their metastatic model potential. A549 cells are also one of the tumor cell lines sensitive to SQMG[9]. Therefore, we studied the phosphorylation of FAK in A549 cells (Fig. 5C,D). SQAP could inhibit the phosphorylation of FAK at Y397 and Y925 after 1 h treatment in a dose dependent manner. […] We also examined paxillin and Akt phosphorylation in A549 as downstream targets of FAK. […] We hypothesize that SQAP diminish on Akt phosphorylation being more readily in A549 cancer cells than in HUVEC endothelial cells might be due to a higher Akt basal activity on cancer cells.
Cells were harvested and solubilized in RIPA buffer (20 mM Tris-HCl, pH 7.5, 1% Sodium deoxycholate, 150 mM NaCl, 5 mM EDTA, 1% Triton X-100, 0.1% SDS, 0.1%, 1 mM PMSF, 1 mM vanadate and 1 μg/mL leupeptin). Protein quantification was determined using the DC protein assay kit (Bio-Rad, Hercules, CA, USA). A total of 15 μg of each protein sample were separated by SDS–PAGE gels and blotted onto polyvinylidene difluoride membranes (Merck, Kenilworth, NJ, US). […]

[3] = system: HUVEC cells; assay: Wound healing assay, HUVEC; type: cell-based, human; settings: 11 h, 1% FBS and VEGF 50 ng/mL, control 32%
Description: Figure 6 SQAP inhibits cell migration in vitro. (A) HUVEC cells were seeded and grown to 100% confluence in 60-mm diameter dishes. After generating a single scratch in the monolayer, the cells were cultured for 11 h in medium containing 1% FBS and VEGF (50 ng/mL) in the presence or absence of SQAP. Photographs were taken immediately after 11 h. (B) The change in wound width was measured as described in the Materials and Methods. (C) A549 cells were seeded and grown to 100% confluence in 60-mm diameter dishes. After generating a single scratch in the monolayer, the cells cultured for the 25 h in media containing 1% FBS and fibronectin (10 μg/ml) treated with SQAP or vehicle. Photographs were collected immediately after wounding and after 25 h. (D) The change in wound width was measured as described in the Materials and Methods. Cell migration was additionally examined in 96 well plates. HUVEC (E) and A549 cells (F) were seeded and grown into confluence overnight. After removing the stoppers, the live cells were stained with CellTracker^TM Green and incubated for the indicated time. The fluorescent emission signal was obtained with a plate reader. […]
Wound healing assay was analyzed by microscope imaging. […] Wound diameters in the images were measured and percentage of wound size was calculated as follows: [wound diameter at 11 or 25 h/wound diameter at 0 h] x 100.

T1 sequence (P54727 whole entry): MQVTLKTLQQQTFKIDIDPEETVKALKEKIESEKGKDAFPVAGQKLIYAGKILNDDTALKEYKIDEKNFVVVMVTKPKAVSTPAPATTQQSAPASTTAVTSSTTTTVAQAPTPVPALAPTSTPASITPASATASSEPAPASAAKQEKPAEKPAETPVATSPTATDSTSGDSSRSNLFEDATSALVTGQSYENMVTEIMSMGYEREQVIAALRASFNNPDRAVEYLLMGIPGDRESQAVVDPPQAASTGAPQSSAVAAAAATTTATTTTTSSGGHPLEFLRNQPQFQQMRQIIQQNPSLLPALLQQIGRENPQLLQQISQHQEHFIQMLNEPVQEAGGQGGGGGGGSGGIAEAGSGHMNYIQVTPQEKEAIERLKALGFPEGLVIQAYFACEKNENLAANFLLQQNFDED

**Q.** `CCCCCCCCCCCCCCCCCC(=O)OCCCO[C@H]1O[C@H](CS(=O)(=O)O)[C@@H](O)[C@H](O)[C@H]1O` [SQAP, sulfoquynovosylacylpropanediol] was tested. Which “binding to HR23B (SPR response)” value [1] did it give?
**A.** specific binding response of SQAP in a dose-dependent manner

**Q.** And the “paxillin phosphorylation at Y118” value [2]?
**A.** inhibition of paxillin phosphorylation at Y118 took 21 h treatment

**Q.** And the wound size [3]?
**A.** 62%

Source: paper PMC4601023, “Novel anticancer agent, SQAP, binds to focal adhesion kinase and modulates its activity” (Scientific Reports, 2015)
